SMILES strings stand for the structures. Like-named read-outs stand apart in the source and are kept apart here.

Our source for the IC50 values is patent US9452986B2, “6-heteroaryloxy- or 6-aryloxy-quinoline-2-carboxamides and method of use” (AbbVie Inc., priority 2014, dated 2016).

The target of the test is recombinant human Nav1.7 (Homo sapiens (Human), UniProt Q15858). As to the kind of experiment: FRET-based membrane potential assay, recombinant human sodium channel Nav1.7. In kind it is cell-based. Conditions: read-out: FRET-Membrane Potential Nav1.7 IC50. In short, it runs like this:
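Channel activation used veratridine at its EC80, set by a dilution curve each experiment, together with Leiurus scorpion venom, added 3 min after compound. Membrane-potential ratio signals from FLIPR Tetra in HEPES-buffered HBSS were fitted to a four-parameter Hill equation for percent inhibition and IC50.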

The mark [1] stands for this setting: HEK293 cells stably expressing recombinant human Nav1.7, veratridine + scorpion venom depolarization.

recombinant human Nav1.7, sequence (Q15858 whole entry): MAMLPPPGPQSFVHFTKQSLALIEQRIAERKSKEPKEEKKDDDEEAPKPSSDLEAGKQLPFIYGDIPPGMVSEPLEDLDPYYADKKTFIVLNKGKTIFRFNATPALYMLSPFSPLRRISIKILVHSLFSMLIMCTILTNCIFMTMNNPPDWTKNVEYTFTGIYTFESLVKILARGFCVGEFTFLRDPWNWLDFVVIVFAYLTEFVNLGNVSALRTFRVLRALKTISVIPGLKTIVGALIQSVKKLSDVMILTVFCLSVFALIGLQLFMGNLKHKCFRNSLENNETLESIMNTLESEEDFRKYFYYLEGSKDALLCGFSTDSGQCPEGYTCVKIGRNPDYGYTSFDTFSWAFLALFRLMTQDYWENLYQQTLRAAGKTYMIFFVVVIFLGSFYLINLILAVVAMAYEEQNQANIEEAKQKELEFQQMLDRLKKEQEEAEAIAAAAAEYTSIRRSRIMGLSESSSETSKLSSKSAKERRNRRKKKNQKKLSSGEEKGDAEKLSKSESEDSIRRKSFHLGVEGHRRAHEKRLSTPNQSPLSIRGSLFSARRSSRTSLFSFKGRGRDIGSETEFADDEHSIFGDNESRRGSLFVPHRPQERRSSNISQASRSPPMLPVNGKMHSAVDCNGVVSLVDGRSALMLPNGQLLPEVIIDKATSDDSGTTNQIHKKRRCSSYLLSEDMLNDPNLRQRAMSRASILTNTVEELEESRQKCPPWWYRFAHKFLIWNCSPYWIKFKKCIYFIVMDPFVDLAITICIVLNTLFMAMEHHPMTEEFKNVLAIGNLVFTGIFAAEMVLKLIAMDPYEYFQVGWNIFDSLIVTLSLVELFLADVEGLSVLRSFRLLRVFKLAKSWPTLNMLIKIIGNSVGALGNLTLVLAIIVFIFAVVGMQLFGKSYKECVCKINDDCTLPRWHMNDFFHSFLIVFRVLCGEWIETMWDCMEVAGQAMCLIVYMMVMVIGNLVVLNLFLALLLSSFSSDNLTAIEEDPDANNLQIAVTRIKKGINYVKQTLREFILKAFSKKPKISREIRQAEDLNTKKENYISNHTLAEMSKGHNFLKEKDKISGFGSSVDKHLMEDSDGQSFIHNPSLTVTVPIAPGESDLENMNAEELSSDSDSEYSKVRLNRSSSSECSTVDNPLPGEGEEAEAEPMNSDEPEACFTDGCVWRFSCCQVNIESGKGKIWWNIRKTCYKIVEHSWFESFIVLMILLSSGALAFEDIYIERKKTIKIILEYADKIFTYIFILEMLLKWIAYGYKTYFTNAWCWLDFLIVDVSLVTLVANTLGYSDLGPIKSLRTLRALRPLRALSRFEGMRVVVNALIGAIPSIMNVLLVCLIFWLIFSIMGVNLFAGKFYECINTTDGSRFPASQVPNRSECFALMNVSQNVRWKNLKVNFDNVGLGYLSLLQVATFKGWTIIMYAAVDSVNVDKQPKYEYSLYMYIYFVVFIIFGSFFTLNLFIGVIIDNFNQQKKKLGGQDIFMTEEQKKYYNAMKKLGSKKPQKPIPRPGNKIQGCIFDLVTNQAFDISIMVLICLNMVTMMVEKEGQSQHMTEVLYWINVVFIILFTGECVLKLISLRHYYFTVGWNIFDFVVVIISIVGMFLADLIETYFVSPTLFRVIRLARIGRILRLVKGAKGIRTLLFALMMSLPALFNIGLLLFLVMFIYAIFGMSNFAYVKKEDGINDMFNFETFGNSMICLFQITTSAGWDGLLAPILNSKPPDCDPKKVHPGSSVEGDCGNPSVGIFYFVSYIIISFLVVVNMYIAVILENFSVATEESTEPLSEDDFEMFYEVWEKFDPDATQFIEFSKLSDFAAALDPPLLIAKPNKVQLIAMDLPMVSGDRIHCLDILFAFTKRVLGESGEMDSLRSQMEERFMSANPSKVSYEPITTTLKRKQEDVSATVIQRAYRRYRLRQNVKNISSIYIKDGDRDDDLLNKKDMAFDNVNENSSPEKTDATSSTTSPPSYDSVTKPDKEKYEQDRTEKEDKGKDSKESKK

Take `CC1(O)CC(NC(=O)c2ccc3cc(Oc4ccc(C(F)(F)F)nc4)ccc3n2)C1` (centres unmarked) [Example 578, N-(3-hydroxy-3-methylcyclobutyl)-6-{[6-(trifluoromethyl)pyridin-3-yl]oxy}quinoline-2-carboxamide]: the IC50 under setting [1] is 1070 nM. Turning to `N#Cc1ccc(Oc2ccc3nc(C(=O)N[C@H]4CC[C@@H](O)C4)ccc3c2)cc1` [Example 130, 6-(4-cyanophenoxy)-N-[(1S,3R)-3-hydroxycyclopentyl]quinoline-2-carboxamide], the concentration for half-maximal inhibition (IC50) under setting [1] is 2050 nM. As to `CC1(O)CN(C(=O)c2ccc3cc(Oc4ccc(C(F)(F)F)cn4)ccc3n2)C1` [Example 198, (3-hydroxy-3-methylazetidin-1-yl)(6-{[5-(trifluoromethyl)pyridin-2-yl]oxy}quinolin-2-yl)methanone], the IC50 under setting [1] amounted to 2210 nM. For `O=C(NCCN1CCNCC1=O)c1ccc2cc(Oc3ccc(C(F)(F)F)cn3)ccc2n1` [Example 469, N-[2-(2-oxopiperazin-1-yl)ethyl]-6-{[5-(trifluoromethyl)pyridin-2-yl]oxy}quinoline-2-carboxamide], under setting [1], the IC50 came out at 1710 nM. For the molecule `O=C(c1ccc2cc(Oc3ccc(C(F)(F)F)cn3)ccc2n1)N1CCC(N2CC(F)(F)C2)CC1` [Example 540, [4-(3,3-difluoroazetidin-1-yl)piperidin-1-yl](6-{[5-(trifluoromethyl)pyridin-2-yl]oxy}quinolin-2-yl)methanone], the IC50 was 4030 nM.

Turning to `CC1(O)CN(C(=O)CNC(=O)c2ccc3cc(Oc4ccc(C(F)(F)F)cn4)ccc3n2)C1` [Example 567, N-[2-(3-hydroxy-3-methylazetidin-1-yl)-2-oxoethyl]-6-{[5-(trifluoromethyl)pyridin-2-yl]oxy}quinoline-2-carboxamide], the IC50 came to 3280 nM. `COCCNC(=O)CN(C)C(=O)c1ccc2cc(Oc3ccc(C(F)F)cn3)ccc2n1` [Example 457, 6-{[5-(difluoromethyl)pyridin-2-yl]oxy}-N-{2-[(2-methoxyethyl)amino]-2-oxoethyl}-N-methylquinoline-2-carboxamide]: the IC50 under setting [1] is over 20000 nM. For the molecule `CO[C@H]1CCN(C(=O)c2ccc3cc(Oc4ccc(C(F)(F)F)cn4)ccc3n2)C1` [Example 589, [(3S)-3-methoxypyrrolidin-1-yl](6-{[5-(trifluoromethyl)pyridin-2-yl]oxy}quinolin-2-yl)methanone], the IC50 came out at 4070 nM.

Consider `O=C(NC1CCSC1)c1ccc2cc(Oc3ccc(C(F)(F)F)cn3)ccc2n1` (centres unmarked) [Example 420, N-(tetrahydrothiophen-3-yl)-6-{[5-(trifluoromethyl)pyridin-2-yl]oxy}quinoline-2-carboxamide], for which the IC50 under setting [1] was 2430 nM.

With `Cc1c(S(=O)(=O)N2CCN(C(=O)c3ccc4cc(Oc5ccc(C(F)(F)F)cn5)ccc4n3)CC2)cnn1C` [Example 390, {4-[(1,5-dimethyl-1H-pyrazol-4-yl)sulfonyl]piperazin-1-yl}(6-{[5-(trifluoromethyl)pyridin-2-yl]oxy}quinolin-2-yl)methanone], under setting [1], the IC50 is 2340 nM.

In the case of `O=C(NC1CCC(F)(F)C1)c1ccc2cc(Oc3ccc(C(F)F)cn3)ccc2n1` (centres unmarked) [Example 486, N-(3,3-difluorocyclopentyl)-6-{[5-(difluoromethyl)pyridin-2-yl]oxy}quinoline-2-carboxamide], the IC50 was determined as 2540 nM. `CS(=O)(=O)C1CN(C(=O)c2ccc3cc(Oc4ccc(C(F)F)cn4)ccc3n2)C1` [Example 479, (6-{[5-(difluoromethyl)pyridin-2-yl]oxy}quinolin-2-yl)[3-(methylsulfonyl)azetidin-1-yl]methanone]: the IC50 under setting [1] worked out at 3190 nM. In the case of `CC(C)(O)CCNC(=O)c1ccc2cc(Oc3ccc(C(F)(F)F)cn3)ccc2n1` [Example 334, N-(3-hydroxy-3-methylbutyl)-6-{[5-(trifluoromethyl)pyridin-2-yl]oxy}quinoline-2-carboxamide], the IC50 under setting [1] was 3440 nM. As to `O=C1NCCN(C(=O)c2ccc3cc(Oc4ccc(C(F)(F)F)cn4)ccc3n2)C1c1ccccc1` (centres unmarked) [Example 208, 3-phenyl-4-[(6-{[5-(trifluoromethyl)pyridin-2-yl]oxy}quinolin-2-yl)carbonyl]piperazin-2-one], the IC50 was 3050 nM.

Usually IC50 stands for the midpoint of a concentration-inhibition curve.
